experiment: Compound was tested for binding affinity towards Opioid receptor delta 1 in guinea pig brain homogenates using [3H][p-Cl-Phe]-DPDPE as radioligand

Row | SMILES | Ki
1 | C[C@@H](NC(=O)[C@@H](N)Cc1ccc(O)cc1)C(=O)NCC(=O)N[C@@H](Cc1ccc2ccccc2c1)C(=O)NNC(=O)[C@H](Cc1ccc2ccccc2c1)NC(=O)CNC(=O)[C@@H](C)NC(=O)[C@@H](N)Cc1ccc(O)cc1 [Biphalin Analogue] | 7.4 nM
2 | C[C@@H](NC(=O)[C@@H](N)Cc1ccc(O)cc1)C(=O)NCC(=O)N[C@@H](Cc1c(F)c(F)c(F)c(F)c1F)C(=O)NNC(=O)[C@H](Cc1c(F)c(F)c(F)c(F)c1F)NC(=O)CNC(=O)[C@@H](C)NC(=O)[C@@H](N)Cc1ccc(O)cc1 [Biphalin Analogue] | 7.8 nM
3 | C[C@@H](NC(=O)[C@@H](N)Cc1ccc(O)cc1)C(=O)NCC(=O)N[C@H](C(=O)NNC(=O)[C@@H](NC(=O)CNC(=O)[C@@H](C)NC(=O)[C@@H](N)Cc1ccc(O)cc1)[C@@H](C)c1ccccc1)[C@@H](C)c1ccccc1 [2-Amino-N-((S)-1-{[((S)-1-{N'-[(S)-2-(2-{(S)-2-[2-amino-3-(4-hydroxy-phenyl)-propionylamino]-propionylamino}-acetylamino)-3-phenyl-butyryl]-hydrazinocarbonyl}-2-phenyl-propylcarbamoyl)-methyl]-carbamoyl}-ethyl)-3-(4-hydroxy-phenyl)-propionamide] | 11 nM
4 | C[C@H](c1ccccc1)[C@H](NC(=O)CNC(=O)[C@@H](C)NC(=O)[C@@H](N)Cc1ccc(O)cc1)C(=O)NNC(=O)[C@@H](NC(=O)CNC(=O)[C@@H](C)NC(=O)[C@@H](N)Cc1ccc(O)cc1)[C@H](C)c1ccccc1 [2-Amino-N-((S)-1-{[((R)-1-{N'-[(R)-2-(2-{(S)-2-[2-amino-3-(4-hydroxy-phenyl)-propionylamino]-propionylamino}-acetylamino)-3-phenyl-butyryl]-hydrazinocarbonyl}-2-phenyl-propylcarbamoyl)-methyl]-carbamoyl}-ethyl)-3-(4-hydroxy-phenyl)-propionamide] | 110 nM
5 | C[C@@H](NC(=O)[C@@H](N)Cc1ccc(O)cc1)C(=O)NCC(=O)N[C@@H](Cc1cccc2ccccc12)C(=O)NNC(=O)[C@H](Cc1cccc2ccccc12)NC(=O)CNC(=O)[C@@H](C)NC(=O)[C@@H](N)Cc1ccc(O)cc1 [Biphalin Analogue] | 6.4 nM
